Results taken from patent US20250320213A1, “Nitrogen-Containing Heterocyclic Compounds” (Pfizer Inc., priority 2024, published 2025).
Read-outs that look alike come from different tables or passages of the source.

Columns and labels:
[1] = tested on: CCL17 secretion in peripheral human whole blood; assay: Human Whole Blood (HWB) CCL17 TR-FRET Assay (IL-13 stimulated CCL17 secretion); format: cell-based
Method in brief: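 TR-FRET sandwich immunoassay (665/615 nm ratio) read CCL17 in serum from heparinized whole blood after 16 h RT detection. Blood was exposed to compound for 2 h at 37 °C, then to 10 ng/mL IL-13 (final) for 48 h. IC50 from 11-point, 3-fold titrations in duplicate.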

STAT6 = molecular target: T1, STAT6 (Homo sapiens, UniProt P42226); assay: STAT6 Reporter Luciferase Assay (IL-13 stimulated HaCaT keratinocyte NanoLuc reporter cells); format: cell-based; conditions: read-out: Reporter EC50
T1 construct: stably transfected HaCaT keratinocyte cell line, which expresses NanoLuc luciferase reporter gene under the transcriptional control of the STAT6 responsive promoter; endogenous in cells; host or cells: HaCaT keratinocyte reporter cell line (stably transfected with a NanoLuc reporter)
T1 sequence (P42226 1-847): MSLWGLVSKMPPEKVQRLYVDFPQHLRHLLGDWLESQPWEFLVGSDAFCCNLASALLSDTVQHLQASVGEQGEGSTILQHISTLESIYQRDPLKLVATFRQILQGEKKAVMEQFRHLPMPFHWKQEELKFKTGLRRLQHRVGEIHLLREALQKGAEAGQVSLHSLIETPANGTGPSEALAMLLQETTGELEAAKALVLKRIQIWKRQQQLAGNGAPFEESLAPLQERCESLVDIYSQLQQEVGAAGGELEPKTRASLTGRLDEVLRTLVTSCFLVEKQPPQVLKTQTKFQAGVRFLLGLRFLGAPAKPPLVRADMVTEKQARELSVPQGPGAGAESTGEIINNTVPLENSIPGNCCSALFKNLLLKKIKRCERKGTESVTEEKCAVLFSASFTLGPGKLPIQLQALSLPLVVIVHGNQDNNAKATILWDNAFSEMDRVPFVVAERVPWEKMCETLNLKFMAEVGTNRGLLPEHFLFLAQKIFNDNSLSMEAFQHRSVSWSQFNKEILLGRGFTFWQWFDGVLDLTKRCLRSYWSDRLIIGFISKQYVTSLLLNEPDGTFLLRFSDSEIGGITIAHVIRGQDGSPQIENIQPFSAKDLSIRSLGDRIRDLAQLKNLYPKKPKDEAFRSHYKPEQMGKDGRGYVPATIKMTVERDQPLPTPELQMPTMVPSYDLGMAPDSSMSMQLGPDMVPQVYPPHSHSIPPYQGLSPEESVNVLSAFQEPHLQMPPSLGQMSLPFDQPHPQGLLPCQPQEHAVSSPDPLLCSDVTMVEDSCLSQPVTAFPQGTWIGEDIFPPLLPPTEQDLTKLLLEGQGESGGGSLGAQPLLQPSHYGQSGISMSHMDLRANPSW
Method in brief: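 Cells were plated overnight, washed, exposed to compound for two hours, stimulated with IL-13 (0.12 nM final) for four hours at 37 °C, and then lysed with Nano-Glo substrate for 15 min before luminescence reading.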

[2] = IL-13 stimulated HaCaT STAT6 NanoLuc reporter cells
[3] = human whole blood, 10 ng/mL IL13, 48 hours
[4] = Homo sapiens, 48 h, human whole blood, 10 ng/mL IL13, 48 hours
[5] = Homo sapiens, 48 h, inhibition of CCL17 secretion in human whole blood, 10 ng/mL IL13, 48 hours
[6] = STAT6 NanoLuc luciferase reporter, IL-13 stimulated HaCaT keratinocyte cells

Compound | EC50 (STAT6; [2]) [µM] | IC50 [1, 4] [µM] | further results
CNC(=O)Nc1ccc(CNC(=O)c2nn(C(C)C)c3c2CN(c2ncc(-c4nccn4C)cn2)C[C@@H]3C)cc1 (single isomer, unassigned) [Example 515] | 0.001 | – | IC50 ([1]; Homo sapiens, 48 h, human whole blood, IL-13 stimulated): 0.006 µM
CC(C)n1nc(C(=O)NCc2ccc(NC(=O)N(C)C)cc2)c2c1C(C(F)(F)F)CN(c1ccc(C(=O)N(C)C)cn1)C2 (single isomer, unassigned) [Example 547, rel-(R or S)-5-(5-(Dimethylcarbamoyl)pyridin-2-yl)-N-(4-(3,3-dimethylureido)benzyl)-1-isopropyl-7-(trifluoromethyl)-4,5,6,7-tetrahydro-1H-pyrazolo[4,3-c]pyridine-3-carboxamide] | 0.0002 | – | IC50 [1, 3]: 0.003 µM
CC(C)n1nc(C(=O)NCc2ccc(-c3ncc[nH]3)cc2)c2c1[C@H](C)CN(c1ncc(C(=O)N(C)C)cn1)C2 (single isomer, unassigned) [Example 549] | 0.099 | 1.1 | –
C[C@@H]1CN(c2ccc(C(=O)N(C)C)cn2)Cc2c(C(=O)NCc3ccc(NC(=O)N(C)C)cc3)nn(CC(F)(F)F)c21 (single isomer, unassigned) [Example 550] | 0.011 | 0.085 | –
C[C@@H]1CN(c2ccc(C(=O)N(C)C)cn2)Cc2c(C(=O)NCc3ccc(NC(=O)N(C)C)cc3)nn(C3(C)CC3)c21 (single isomer, unassigned) [Example 551] | 0.012 | 0.104 | –
CC(C)n1nc(C(=O)NCc2ccc(NC(=O)N(C)C)cc2)c2c1[C@H](C)CN(c1ncc(C(=O)N(C)C)cn1)C2 (single isomer, unassigned) [Example 552] | 0.034 | 0.087 | –
C[C@@H]1CN(c2ccc(C(=O)N(C)C)cn2)Cc2c(C(=O)NCc3ccc(NC(=O)N(C)C)cc3)nn(C3CCOCC3)c21 (single isomer, unassigned) [Example 556] | 0.058 | 0.196 | –
C[C@@H]1CN(c2ccc(C(=O)N(C)C)cn2)Cc2c(C(=O)NCc3ccc(NC(=O)N(C)C)cc3)nn(C3CCC3)c21 (single isomer, unassigned) [Example 557] | 0.015 | 0.204 | –
CC(C)n1nc(C(=O)NCc2ccc(NC(=O)N(C)C)cc2)c2c1CCN(c1ccc(N3CCCC3=O)cn1)C2 [Example 1, N-(4-(3,3-dimethylureido)benzyl)-1-isopropyl-5-(5-(2-oxopyrrolidin-1-yl)pyridin-2-yl)-4,5,6,7-tetrahydro-1H-pyrazolo[4,3-c]pyridine-3-carboxamide] | – | – | IC50 [1, 5]: 0.318 µM; EC50 (STAT6; [6]): 0.011 µM
CC(C)n1nc(C(=O)NCc2ccc(NC(=O)N(C)C)cc2)c2c1CCN(c1ccc(C(=O)N(C)C)cn1)C2 [Example 2, 5-(5-(Dimethylcarbamoyl)pyridin-2-yl)-N-(4-(3,3-dimethylureido)benzyl)-1-isopropyl-4,5,6,7-tetrahydro-1H-pyrazolo[4,3-c]pyridine-3-carboxamide] | – | – | IC50 [1, 5]: 0.069 µM; EC50 (STAT6; [6]): 0.008 µM
CCn1nc(C(=O)NCc2ccc(NC(=O)N(C)C)cc2)c2c1CCN(c1ccc(C(=O)N(C)C)cn1)C2 [Example 3, 5-(5-(Dimethylcarbamoyl)pyridin-2-yl)-N-(4-(3,3-dimethylureido)benzyl)-1-ethyl-4,5,6,7-tetrahydro-1H-pyrazolo[4,3-c]pyridine-3-carboxamide] | – | – | IC50 [1, 5]: 0.104 µM; EC50 (STAT6; [6]): 0.01 µM
CNC(=O)c1ccc(CNC(=O)c2nn(C)c3c2CN(c2ccc(C(=O)N(C)C)cc2)CC3)cc1 [Example 4, 5-(4-(Dimethylcarbamoyl)phenyl)-1-methyl-N-(4-(methylcarbamoyl)benzyl)-4,5,6,7-tetrahydro-1H-pyrazolo[4,3-c]pyridine-3-carboxamide] | – | – | IC50 [1, 5]: 1.11 µM; EC50 (STAT6; [6]): 0.178 µM
Cc1nc(C(=O)NCc2ccc(NC(=O)N(C)C)cc2)c2n1CCN(c1ccc(C(=O)N(C)C)cn1)C2 [Example 5, 7-(5-(Dimethylcarbamoyl)pyridin-2-yl)-N-(4-(3,3-dimethylureido)benzyl)-3-methyl-5,6,7,8-tetrahydroimidazo[1,5-a]pyrazine-1-carboxamide] | – | – | IC50 ([1]; inhibition of CCL17 secretion in human whole blood, 10 ng/mL IL13, 48 hours): 0.927 µM; EC50 (STAT6; [6]): 0.124 µM

Second part, led by results:

EC50 (STAT6; [2]) [µM] | IC50 [1, 4] [µM] | Compound | further results
8.87 | – | CC[C@H]1c2c(C(=O)NCc3ccc(NC(=O)N(C)C)cc3)nn(C(C)C)c2CCN1c1ccc(C(=O)N(C)C)cn1 (single isomer, unassigned) [Example 527] | IC50 [1, 3]: > 25.1 µM
0.017 | – | CC[C@H]1c2c(C(=O)NCc3ccc(NC(=O)N(C)C)cc3)nn(C(C)C)c2CCN1c1ccc(C(=O)N(C)C)cn1 (single isomer, unassigned) [Example 528] | IC50 [1, 3]: 0.067 µM
0.0001 | 0.004 | CC(C)n1nc(C(=O)NCc2ccc(NC(=O)N(C)C)cc2)c2c1[C@@H](C)CN(c1ccc(C(=O)N(C)C)cn1)[C@@H]2C (single isomer, unassigned) [Example 529] | –
0.0002 | – | CC(C)c1nc(C(=O)NCc2ccc(NC(=O)N(C)C)cc2)c2n1C(C)CN(c1ccc(C(=O)N(C)C)cc1)C2 (single isomer, unassigned) [Example 538, rel-(R or S)-7-(4-(Dimethylcarbamoyl)phenyl)-N-(4-(3,3-dimethylureido)benzyl)-3-isopropyl-5-methyl-5,6,7,8-tetrahydroimidazo[1,5-a]pyrazine-1-carboxamide] | IC50 [1, 3]: 0.005 µM
0.013 | – | CC(C)c1nc(C(=O)NCc2ccc(NC(=O)N(C)C)cc2)c2n1C(C)CN(c1ccc(C(=O)N(C)C)cc1)C2 (single isomer, unassigned) [Example 539, rel-(R or S)-7-(4-(Dimethylcarbamoyl)phenyl)-N-(4-(3,3-dimethylureido)benzyl)-3-isopropyl-5-methyl-5,6,7,8-tetrahydroimidazo[1,5-a]pyrazine-1-carboxamide] | IC50 [1, 3]: 0.072 µM
0.015 | – | CC(C)n1nc(C(=O)NCc2ccc(NC(=O)N(C)C)cc2)c2c1C(C(F)(F)F)CN(c1ccc(C(=O)N(C)C)cn1)C2 (single isomer, unassigned) [Example 548, rel-(R or S)-5-(5-(Dimethylcarbamoyl)pyridin-2-yl)-N-(4-(3,3-dimethylureido)benzyl)-1-isopropyl-7-(trifluoromethyl)-4,5,6,7-tetrahydro-1H-pyrazolo[4,3-c]pyridine-3-carboxamide] | IC50 [1, 3]: 0.199 µM
0.003 | – | CNC1(C)CCN(C(=O)Nc2ccc(CNC(=O)c3nn(C(C)C)c4c3CN(c3ccc(C(=O)N(C)C)cc3)C[C@@H]4C)cc2)C1 (single isomer, unassigned) [Example 713, (S)-5-(4-(dimethylcarbamoyl)phenyl)-1-isopropyl-7-methyl-N-(4-((R*)-3-methyl-3-(methylamino)pyrrolidine-1-carboxamido)benzyl)-4,5,6,7-tetrahydro-1H-pyrazolo[4,3-c]pyridine-3-carboxamide] | IC50 ([1]; Homo sapiens, 48 h, human whole blood, IL-13 10 ng/mL): 0.022 µM
0.004 | – | CNC1(C)CCN(C(=O)Nc2ccc(CNC(=O)c3nn(C(C)C)c4c3CN(c3ccc(C(=O)N(C)C)cc3)C[C@@H]4C)cc2)C1 (single isomer, unassigned) [Example 714, (S)-5-(4-(dimethylcarbamoyl)phenyl)-1-isopropyl-7-methyl-N-(4-((R*)-3-methyl-3-(methylamino)pyrrolidine-1-carboxamido)benzyl)-4,5,6,7-tetrahydro-1H-pyrazolo[4,3-c]pyridine-3-carboxamide] | IC50 ([1]; human whole blood, IL-13 10 ng/mL, 48 hours): 0.028 µM
